ChEMBL document CHEMBL1150898, “Synthesis and dopamine receptor selectivity of the benzyltetrahydroisoquinoline, (R)-(+)-nor-roefractine” (J Nat Prod, 1998)

Key:
D(2) dopamine receptor = D(2) dopamine receptor (Rattus norvegicus, UniProt P61169); experiment: Displacement of [3H]raclopride from rat striatal dopamine D2 receptor
D(1A) dopamine receptor = D(1A) dopamine receptor (Rattus norvegicus, UniProt P18901); experiment: Displacement of [3H]SCH-23390 from rat striatal dopamine D1 receptor
Rattus norvegicus = species: Rattus norvegicus; experiment: Selectivity for rat striatal dopamine D2 receptor over rat striatal dopamine D1 receptor

Chain of D(1A) dopamine receptor (P18901 whole entry): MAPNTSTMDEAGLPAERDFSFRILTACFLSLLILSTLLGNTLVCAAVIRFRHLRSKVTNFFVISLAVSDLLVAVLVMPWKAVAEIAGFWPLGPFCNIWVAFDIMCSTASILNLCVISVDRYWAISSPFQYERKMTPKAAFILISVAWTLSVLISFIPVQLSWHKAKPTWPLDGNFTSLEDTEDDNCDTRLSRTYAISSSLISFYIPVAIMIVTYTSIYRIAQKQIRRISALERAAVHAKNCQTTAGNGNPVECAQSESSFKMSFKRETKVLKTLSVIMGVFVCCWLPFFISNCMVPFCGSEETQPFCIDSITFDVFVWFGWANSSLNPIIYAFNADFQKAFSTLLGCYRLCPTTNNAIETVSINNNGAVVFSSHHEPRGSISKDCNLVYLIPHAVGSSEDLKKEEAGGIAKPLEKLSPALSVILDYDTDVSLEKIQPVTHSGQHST
Chain of D(2) dopamine receptor (P61169 whole entry): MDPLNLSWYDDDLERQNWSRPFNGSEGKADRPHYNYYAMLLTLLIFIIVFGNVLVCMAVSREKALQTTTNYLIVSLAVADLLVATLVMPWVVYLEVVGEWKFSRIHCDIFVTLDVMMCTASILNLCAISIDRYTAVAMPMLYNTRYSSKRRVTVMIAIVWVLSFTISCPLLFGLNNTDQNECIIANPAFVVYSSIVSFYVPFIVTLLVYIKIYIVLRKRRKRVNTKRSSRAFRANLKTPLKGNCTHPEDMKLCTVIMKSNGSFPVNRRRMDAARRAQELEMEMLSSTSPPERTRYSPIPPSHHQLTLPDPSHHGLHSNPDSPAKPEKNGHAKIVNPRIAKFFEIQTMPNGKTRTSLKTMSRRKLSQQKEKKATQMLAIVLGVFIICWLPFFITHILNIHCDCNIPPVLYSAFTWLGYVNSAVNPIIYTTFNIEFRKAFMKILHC

Row | Selectivity ratio (Rattus norvegicus) | SMILES | IC50 (D(2) dopamine receptor) [nM] | IC50 (D(1A) dopamine receptor) [nM]
1 | 6 | COc1ccc(C[C@H]2NCCc3cc(O)c(OC)cc32)cc1 [NOR-ROEFRACTINE] | 5000 | 32900
2 |  | COc1cc2c(cc1O)[C@@H](Cc1ccc(O)cc1)NCC2 | 130 | 240
